What is called clearance is the volume of plasma or blood freed of the substance per unit of time.

This note sets out measurements from patent publication US20250152584A1, “NLRP3 INFLAMMASOME INHIBITOR AND USES THEREOF” (TransThera Sciences (Nanjing), Inc., priority 2022, published 2025).

Data set [1] in a line: Pharmacokinetic study in beagles. As to conditions: beagle, dog, plasma, male beagles; for Cmax: read-out: Cmax po (peak concentration); for Tmax: read-out: Tmax po (peak time of plasma concentration); for clearance: read-out: Cl—obs iv (clearance rate) (converted); for Vd: read-out: Vss iv (volume of distribution); for bioavailability: iv 1.0 mg/kg / po 1.0 mg/kg, read-out: F % (absolute bioavailability). It is filed as in vivo. The procedure:
Experimental Example 4: Pharmacokinetic Study of Compounds in Beagles
Compound 174 was prepared into a solution with a mixed solvent formulated from 5% dimethyl sulfoxide, 20% (30% solutol) and 75% normal saline; the solution of this compound was administered to male beagles by gavage at a dose of 1.0 mg/kg; and the time points for blood collection were: 15 min, 30 min, 1 b, 2 h, 4 h, 6 b, 8 h, 10 h and 24 h. The solution of the compound was administered to male beagles by intravenous bolus at a dose of 1.0 mg/kg, and the time points for blood collection were as follows: 5 min, 15 min, 30 min, 1 h, 2 h, 4 h, 6 h, 8 h, 10 h, and 24 h.
Compound 177 and Compound 195 were prepared into solutions with a mixed solvent formulated from 5% dimethyl sulfoxide, 20% (30% solutol) and 75% normal saline, respectively; the solutions of these compounds were administered to male beagles by gavage at a dose of 1.0 mg/kg; and the time points for blood collection were: 15 min, 30 min, 1 h, 2 h, 4 h, 6 h, 8 h, 10 h and 24 h. The solution of the compound was administered to male beagles by intravenous bolus at a dose of 1.0 mg/kg, and the time points for blood collection were as follows: 5 min, 15 min, 30 min, 1 h, 2 h, 4 h, 6 h, 8 h, 10 h, and 24 h.
Approximately 400 μL of blood was collected through the medial cephalic vein of the forelimb and placed in an anticoagulant tube containing EDTA-K2. Blood samples were centrifuged at 12,000 rpm for 10 min at 4° C. to obtain plasma samples, and plasma was prepared within 30 min after blood collection. The plasma was stored in a −80° C. freezer before testing.

Data set [2] can be described thus: Pharmacokinetic study in C57BL/6J mice. It is filed as in vivo. As to conditions: mouse, plasma, C57BL/6J female mice. The method, then: Experimental Example 2: Pharmacokinetic Study of Compounds in C57BL/6J Mice
Compound 100, Compound 54, Compound 174, Compound 179, and Compound 253 were prepared into solutions with a mixed solvent formulated from 5% dimethyl sulfoxide, 20% (30% solutol) and 75% normal saline, respectively; the solution of each compound was administered to C57BL/6J female mice by gavage at a dose of 10 mg/kg; and the time points for blood collection were: 15 min, 30 min, 1 h, 2 h, 4 h, 6 h, 8 h and 24 h. The solution of the compound was administered to C57BL/6J female mice by intravenous bolus at a dose of 5 mg/kg, and the time points for blood collection were as follows: 5 min, 15 min, 30 min, 1 h, 2 h, 4 h, 6 h, 8 h, and 24 h.
Compound 1 was prepared into a solution with a mixed solvent formulated from 5% DME, 20% (30% solutol) and 75% normal saline; the solution of this compound was administered to C57BL/6J female mice by gavage at a dose of 10 mg/kg, and the time points for blood collection were: 15 min, 30 min, 1 h, 2 h, 4 h, 6 h, 8 h, and 24 h. The solution of the compound was administered to C57BL/6J female mice by intravenous bolus at a dose of 5 mg/kg, and the time points for blood collection were as follows: 5 min, 15 min, 30 min, 1 h, 2 h, 4 h, 6 h, 8 h, and 24 h.
Compound 195 was prepared into a solution with a mixed solvent formulated from 5% dimethyl sulfoxide, 20% PEG400 and 75% normal saline; the solution of this compound was administered to C57BL/6J female mice by gavage at a dose of 10 mg/kg; and the time points for blood collection were 15 min, 30 min, 1 h, 2 h, 4 h, 6 h, 8 h, and 24 b. The solution of the compound was administered to C57BL/6J female mice by intravenous bolus at a dose of 5 mg/kg, and the time points for blood collection were as follows: 5 min, 15 min, 30 min, 1 h, 2 b, 4 h, 6 h, 8 h, and 24 h.
Approximately 100 μL of blood was collected through the retroorbital venous plexus, and was then placed in an anticoagulant tube containing EDTA-K2. Blood samples were centrifuged at 12,000 rpm for 10 min at 4° C. to obtain plasma samples, and plasma was prepared within 30 min after blood collection. The plasma was stored in a −80° C. freezer before testing.
• 1. The samples were taken from the −80° C. freezer, thawed naturally at room temperature, and then vortexed for 5 min • 2. 10 μL of a plasma sample was precisely pipetted from different individuals into a 1.5 mL centrifuge tube. • 3. 300 μL of an internal standard working solution (the acetonitrile solution of tolbutamide) at a concentration of […] was added and mixed well. • 4. After vortexing for 5 min, the mixture was centrifuged at 12,000 rpm for 5 min. • 5. 50 μL of the supernatant was accurately pipetted into a 96-well plate preloaded with water at 150 μL/well. • 6. Vortexing was performed for 5 min for sufficient mixing, and LC-MS/MS analysis was then conducted.
The results of the concentrations of the compounds under test were output using Analyst 1.6.3 of AB. Parameters such as mean, standard deviation, coefficient of variation was calculated by Microsoft Excel (parameters directly output by Analyst 1.6.3 needed no calculation), and PK parameters were calculated by WinNonlin Phenoix 8.2 software NCA (Tmax as the median).

The mark [3] stands for this setting: po, gavage 1.0 mg/kg, read-out: AUClast po (area under the drug-time curve for 0-24 h).
The mark [4] stands for this setting: po, gavage 1.0 mg/kg, read-out: tz1/2 po (terminal elimination half-life) (converted).
[5] abbreviates: intravenous bolus 1.0 mg/kg, read-out: AUClast iv (area under the drug-time curve for 0-24 h).
[6] abbreviates: intravenous bolus 1.0 mg/kg, read-out: tz1/2 iv (terminal elimination half-life) (converted).

Each structure is given as a SMILES string.

For the compound `C#Cc1ccc(-c2nnc(N[C@@H]3CCCN(C)C3)nc2C)c(O)c1` [Compound 177], the AUC(0-t) in data set [1] (setting [3]) was 1920 ng·h/mL. Further, in data set [1] (po, gavage 1.0 mg/kg), the Cmax came to 293 ng/mL and the Tmax is 1 h. For the same compound, in data set [1] (setting [4]), the half-life was 5.9 h. Also, the AUC(0-t) in data set [1] (setting [5]) worked out at 1240 ng·h/mL. Also, in data set [1] (intravenous bolus 1.0 mg/kg), the clearance was 13 mL/min/kg and the Vd turned out to be 5.53 L/kg. Moreover, in data set [1] (setting [6]), the half-life was 5.58 h. For the same compound, in data set [1], the bioavailability was determined as 154%.
For the compound `CC#Cc1ccc(-c2nnc(N[C@@H]3CCCN(C)C3)nc2C)c(O)c1` [Compound 195], the Tmax in data set [2] (po, gavage 10 mg/kg, median, read-out: Tmax po (peak time of plasma concentration)) was 1 h; in data set [1] (po, gavage 1.0 mg/kg) it was 4 h. Also, the AUC(0-t) in data set [2] (po, gavage 10 mg/kg, read-out: AUClast po (area under the drug-time curve for 0-24 h)) stood at 7860 ng·h/mL; in data set [2] (intravenous bolus 5 mg/kg, read-out: AUClast iv (area under the drug-time curve for 0-24 h)), 3580 ng·h/mL; in data set [1] (setting [3]), 1900 ng·h/mL; in data set [1] (setting [5]), 2320 ng·h/mL. Also, the Cmax stood at 1230 ng/mL in data set [2] (po, gavage 10 mg/kg, read-out: Cmax po (peak concentration)) and 206 ng/mL in data set [1] (po, gavage 1.0 mg/kg). Besides, the half-life in data set [2] (po, gavage 10 mg/kg, read-out: tz1/2 po (terminal elimination half-life) (converted)) is 3.12 h; in data set [2] (intravenous bolus 5 mg/kg, read-out: tz1/2 iv (terminal elimination half-life) (converted)), 3.89 h; in data set [1] (setting [4]) it was 11 h; in data set [1] (setting [6]), 8.16 h. For the same compound, the clearance in data set [2] (intravenous bolus 5 mg/kg, read-out: Cl—obs iv (clearance rate) (converted)) is 23.2 mL/min/kg; in data set [1] (intravenous bolus 1.0 mg/kg) it was 6.58 mL/min/kg. The Vd is 5.14 L/kg in data set [2] (intravenous bolus 5 mg/kg, read-out: Vss iv (volume of distribution)) and 3.74 L/kg in data set [1] (intravenous bolus 1.0 mg/kg). In addition, the bioavailability in data set [2] (iv 5 mg/kg / po 10 mg/kg, read-out: F % (absolute bioavailability)) stood at 110%; in data set [1], 90.7%.
